According to patent publication US20250179103A1, “6-OXODECAHYDROPYRROLO[1,2-A][1,5]DIAZOCINE AND 6-OXODECAHYDRO-4H-PYRROLO[2,1-D][1,5]THIAZOCINE DERIVATIVES AS STAT3 AND STAT6 MODULATORS FOR THE TREATMENT OF CANCER AND INFLAMMATORY CONDITIONS” (Recludix Pharma, Inc., priority 2022, published 2025):

Assays:
[1] = target: T1, Recombinant STAT6 protein (STAT6(W123-T658)) (Homo sapiens, UniProt P42226); test: STAT6 Fluorescence Polarization (FP) Assay; type: binding; settings: STAT6(W123-T658) 250 nM, probe 5-FAM-ApYKPFQDLI-NH2 2 nM, 45-minute incubation
T1 construct: Recombinant STAT6 protein (STAT6(W123-T658))
T1 sequence (P42226 123-658): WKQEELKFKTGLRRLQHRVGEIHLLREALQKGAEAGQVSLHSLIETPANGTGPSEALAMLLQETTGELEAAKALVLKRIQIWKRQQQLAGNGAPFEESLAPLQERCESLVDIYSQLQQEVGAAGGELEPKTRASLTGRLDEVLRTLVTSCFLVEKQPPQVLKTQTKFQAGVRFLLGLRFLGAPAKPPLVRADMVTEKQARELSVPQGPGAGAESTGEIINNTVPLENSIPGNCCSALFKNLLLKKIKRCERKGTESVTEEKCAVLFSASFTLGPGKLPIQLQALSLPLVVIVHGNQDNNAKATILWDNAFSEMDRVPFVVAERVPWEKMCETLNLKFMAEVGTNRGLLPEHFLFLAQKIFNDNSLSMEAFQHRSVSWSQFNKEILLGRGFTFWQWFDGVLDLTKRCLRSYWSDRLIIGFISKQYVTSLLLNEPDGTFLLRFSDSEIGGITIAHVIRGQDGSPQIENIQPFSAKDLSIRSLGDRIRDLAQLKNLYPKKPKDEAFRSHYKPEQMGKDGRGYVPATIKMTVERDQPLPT
Outline: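 Displacement of a fluorescent phosphotyrosine peptide (5-FAM-ApYKPFQDLI-NH2, 2 nM) from STAT6(W123-T658) (250 nM), 1% DMSO, pH 7.4 HEPES buffer. After 45 min at room temperature, polarization (mP) was plotted versus log compound concentration and fitted by nonlinear regression to give IC50.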

[2] = target: T2, Recombinant STAT3 protein (STAT3(G127-I722)) (Homo sapiens, UniProt P40763); test: STAT3 Fluorescence Polarization (FP) Assay; type: binding; settings: STAT3(G127-I722) 25 nM, probe 5-FAM-GpYLPQTV-NH2 2 nM, 45-minute incubation
T2 construct: Recombinant STAT3 protein (STAT3(G127-I722))
Outline: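 STAT3(G127-I722), 25 nM, was mixed with 2 nM 5-FAM-GpYLPQTV-NH2 probe in HEPES pH 7.4 buffer with 1% DMSO and serially diluted compound. FP (mP) was read after 45 min at room temperature. IC50 came from nonlinear regression.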

T2 sequence (P40763 127-722): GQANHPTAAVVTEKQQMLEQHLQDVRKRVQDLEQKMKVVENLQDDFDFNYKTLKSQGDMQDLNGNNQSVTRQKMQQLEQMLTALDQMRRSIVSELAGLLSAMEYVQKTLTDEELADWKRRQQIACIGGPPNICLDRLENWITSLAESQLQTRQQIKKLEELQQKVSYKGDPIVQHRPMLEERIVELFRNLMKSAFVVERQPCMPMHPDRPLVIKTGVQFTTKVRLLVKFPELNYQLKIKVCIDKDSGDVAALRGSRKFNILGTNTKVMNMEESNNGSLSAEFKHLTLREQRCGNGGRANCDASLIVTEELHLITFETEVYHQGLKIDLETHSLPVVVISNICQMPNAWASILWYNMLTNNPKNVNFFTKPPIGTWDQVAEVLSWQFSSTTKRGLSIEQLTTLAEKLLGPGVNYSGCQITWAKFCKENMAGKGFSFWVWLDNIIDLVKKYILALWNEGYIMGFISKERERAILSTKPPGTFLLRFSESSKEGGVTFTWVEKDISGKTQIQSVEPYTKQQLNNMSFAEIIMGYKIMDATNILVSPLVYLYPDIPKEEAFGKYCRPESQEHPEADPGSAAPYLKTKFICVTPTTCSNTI

SMILES | IC50 [1] [nM] | IC50 [2] [nM]
CNC(=O)C[C@@H](Cc1ccc(OC)cc1)NC(=O)[C@@H]1CC[C@@H]2CCN(C(=O)c3n[nH]c4ccc(C)cc34)C[C@H](NC(=O)c3ccc4ccc(C(F)(F)P(=O)(O)O)cc4c3)C(=O)N21 [Compound 229, (difluoro(7-(((5S,8S,10aR)-8-(((R)-1-(4-methoxyphenyl)-4-(methylamino)-4-oxobutan-2-yl)carbamoyl)-3-(5-methyl-1H-indazole-3-carbonyl)-6-oxodecahydropyrrolo[1,2-a][1,5]diazocin-5-yl)carbamoyl)naphthalen-2-yl)methyl)phosphonic acid] | ≤ 300 | 1000 to 10000
Cc1ccc2[nH]nc(C(=O)N3CC[C@H]4CC[C@@H](C(=O)N(C)C)N4C(=O)[C@@H](NC(=O)c4cc5cc(CP(=O)(O)O)ccc5s4)C3)c2c1 [Compound 230, ((2-(((5S,8S,10aR)-8-(dimethylcarbamoyl)-3-(5-methyl-1H-indazole-3-carbonyl)-6-oxodecahydropyrrolo[1,2-a][1,5]diazocin-5-yl)carbamoyl)benzo[b]thiophen-5-yl)methyl)phosphonic acid] | 3000 to 30000 | > 10000
O=C(N[C@H]1CN(Cc2ccn3ccnc3c2)CC[C@H]2CC[C@@H](C(=O)N3CC(c4cccnc4)C3)N2C1=O)c1cc2cc(CP(=O)(O)O)ccc2s1 [Compound 235, ((2-(((5S,8S,10aR)-3-(imidazo[1,2-a]pyridin-7-ylmethyl)-6-oxo-8-(3-(pyridin-3-yl)azetidine-1-carbonyl)decahydropyrrolo[1,2-a][1,5]diazocin-5-yl)carbamoyl)benzo[b]thiophen-5-yl)methyl)phosphonic acid] | > 30000 | ≤ 100
CN(C(=O)[C@@H]1CC[C@@H]2CCN(CC(F)F)C[C@H](NC(=O)c3ccc4ccc(C(F)(F)P(=O)(O)O)cc4c3)C(=O)N21)C1CCN(S(C)(=O)=O)CC1 [Compound 244, ((7-(((5S,8S,10aR)-3-(2,2-difluoroethyl)-8-(methyl(1-(methylsulfonyl)piperidin-4-yl)carbamoyl)-6-oxodecahydropyrrolo[1,2-a][1,5]diazocin-5-yl)carbamoyl)naphthalen-2-yl)difluoromethyl)phosphonic acid] | 300 to 3000 | 1000 to 10000
O=C(N[C@H]1CN(C(=O)NCc2ccccc2)CC[C@H]2CC[C@@H](C(=O)Nc3ccc(-c4ccccc4)cc3)N2C1=O)c1cc2cc(C(F)(F)P(=O)(O)O)ccc2s1 [Compound 251, ((2-(((5S,8S,10aR)-8-([1,1′-biphenyl]-4-ylcarbamoyl)-3-(benzylcarbamoyl)-6-oxodecahydropyrrolo[1,2-a][1,5]diazocin-5-yl)carbamoyl)benzo[b]thiophen-5-yl)difluoromethyl)phosphonic acid] | 300 to 3000 | 100 to 1000
O=C(N[C@H]1CN(C(=O)OCc2ccccc2)CC[C@H]2CC[C@@H](C(=O)Nc3ccc(-c4ccccc4)cc3)N2C1=O)c1cc2cc(C(F)(F)P(=O)(O)O)ccc2s1 [Compound 252, ((2-(((5S,8S,10aR)-8-([1,1′-biphenyl]-4-ylcarbamoyl)-3-((benzyloxy)carbonyl)-6-oxodecahydropyrrolo[1,2-a][1,5]diazocin-5-yl)carbamoyl)benzo[b]thiophen-5-yl)difluoromethyl)phosphonic acid] | 300 to 3000 | 1000 to 10000
C[C@@H](C(=O)N1CC[C@H]2CC[C@@H](C(=O)Nc3ccc(-c4ccccc4)cc3)N2C(=O)[C@@H](NC(=O)c2cc3cc(C(F)(F)P(=O)(O)O)ccc3[nH]2)C1)c1ccccc1 [Compound 254, ((2-(((5S,8S,10aR)-8-([1,1′-biphenyl]-4-ylcarbamoyl)-6-oxo-3-((R)-2-phenylpropanoyl)decahydropyrrolo[1,2-a][1,5]diazocin-5-yl)carbamoyl)-1H-indol-5-yl)difluoromethyl)phosphonic acid] | 300 to 3000 | 1000 to 10000
C[C@H](C(=O)N1CC[C@H]2CC[C@@H](C(=O)Nc3ccc(-c4ccccc4)cc3)N2C(=O)[C@@H](NC(=O)c2cc3cc(C(F)(F)P(=O)(O)O)ccc3[nH]2)C1)c1ccccc1 [Compound 255, ((2-(((5S,8S,10aR)-8-([1,1′-biphenyl]-4-ylcarbamoyl)-6-oxo-3-((S)-2-phenylpropanoyl)decahydropyrrolo[1,2-a][1,5]diazocin-5-yl)carbamoyl)-1H-indol-5-yl)difluoromethyl)phosphonic acid] | 300 to 3000 | 100 to 1000
O=C(N[C@H]1CNCC[C@H]2CC[C@@H](C(=O)N3CC(C(=O)N4CCOCC4)C3)N2C1=O)c1cc2cc(C(F)(F)P(=O)(O)O)ccc2s1 [Compound 256, (difluoro(2-(((5S,8S,10aR)-8-(3-(morpholine-4-carbonyl)azetidine-1-carbonyl)-6-oxodecahydropyrrolo[1,2-a][1,5]diazocin-5-yl)carbamoyl)benzo[b]thiophen-5-yl)methyl)phosphonic acid] | 3000 to 30000 | 100 to 1000
CC(C)CN1CC[C@H]2CC[C@@H](C(=O)N3CC(C(=O)N4CCOCC4)C3)N2C(=O)[C@@H](NC(=O)c2cc3cc(C(F)(F)P(=O)(O)O)ccc3s2)C1 [Compound 257, (difluoro(2-(((5S,8S,10aR)-3-isobutyl-8-(3-(morpholine-4-carbonyl)azetidine-1-carbonyl)-6-oxodecahydropyrrolo[1,2-a][1,5]diazocin-5-yl)carbamoyl)benzo[b]thiophen-5-yl)methyl)phosphonic acid] | 3000 to 30000 | 100 to 1000
C[C@@H](Cc1ccccc1)C(=O)N1CC[C@H]2CC[C@@H](C(=O)N3CCCC3)N2C(=O)[C@@H](NC(=O)c2cc3cc(C(F)(F)P(=O)(O)O)ccc3s2)C1 [Compound 258, (difluoro(2-(((5S,8S,10aR)-3-((S)-2-methyl-3-phenylpropanoyl)-6-oxo-8-(pyrrolidine-1-carbonyl)decahydropyrrolo[1,2-a][1,5]diazocin-5-yl)carbamoyl)benzo[b]thiophen-5-yl)methyl)phosphonic acid] | 300 to 3000 | 1000 to 10000

Next, values leading:

IC50 [1] [nM] | IC50 [2] [nM] | SMILES
300 to 3000 | ≤ 100 | CCN1CC[C@H](NC(=O)c2cc3cc(C(F)(F)P(=O)(O)O)ccc3s2)C(=O)N2[C@H](CC[C@H]2C(=O)N2CC(c3cccnc3)C2)C1 [Compound 226, ((2-(((5S,8S,10aR)-2-ethyl-6-oxo-8-(3-(pyridin-3-yl)azetidine-1-carbonyl)decahydropyrrolo[1,2-a][1,4]diazocin-5-yl)carbamoyl)benzo[b]thiophen-5-yl)difluoromethyl)phosphonic acid]
≤ 300 | 1000 to 10000 | Cc1ccc2[nH]nc(C(=O)N3CC[C@H]4CC[C@@H](C(=O)N(C)C)N4C(=O)[C@@H](NC(=O)c4cc5cc(C(F)(F)P(=O)(O)O)ccc5s4)C3)c2c1 [Compound 231, ((2-(((5S,8S,10aR)-8-(dimethylcarbamoyl)-3-(5-methyl-1H-indazole-3-carbonyl)-6-oxodecahydropyrrolo[1,2-a][1,5]diazocin-5-yl)carbamoyl)benzo[b]thiophen-5-yl)difluoromethyl)phosphonic acid]
≤ 300 | > 10000 | O=C(N[C@H]1CCN(CC(F)F)C[C@H]2CC[C@@H](C(=O)N3CC(c4cc[nH]c(=O)c4)CC34CC4)N2C1=O)c1ccc2ccc(C(F)(F)P(=O)(O)O)cc2c1 (stereo partly drawn) [Compound 234, ((7-(((5S,8S,10aR)-2-(2,2-difluoroethyl)-6-oxo-8-(6-(2-oxo-1,2-dihydropyridin-4-yl)-4-azaspiro[2.4]heptane-4-carbonyl)decahydropyrrolo[1,2-a][1,4]diazocin-5-yl)carbamoyl)naphthalen-2-yl)difluoromethyl)phosphonic acid]
≤ 300 | 100 to 1000 | CNC(=O)[C@@H]1CC[C@@H]2CCN(C(=O)c3n[nH]c4ccc(C)cc34)C[C@H](NC(=O)c3ccc4ccc(C(F)(F)P(=O)(O)O)cc4c3)C(=O)N21 [Compound 237, (difluoro(7-(((5S,8S,10aR)-3-(5-methyl-1H-indazole-3-carbonyl)-8-(methylcarbamoyl)-6-oxodecahydropyrrolo[1,2-a][1,5]diazocin-5-yl)carbamoyl)naphthalen-2-yl)methyl)phosphonic acid]
≤ 300 | 1000 to 10000 | CN(C(=O)[C@@H]1CC[C@@H]2CCN(C(=O)CCc3ccccc3)C[C@H](NC(=O)c3cc4cc(C(F)(F)P(=O)(O)O)ccc4[nH]3)C(=O)N21)c1ccccc1 [Compound 253, (difluoro(2-(((5S,8S,10aR)-8-(methyl(phenyl)carbamoyl)-6-oxo-3-(3-phenylpropanoyl)decahydropyrrolo[1,2-a][1,5]diazocin-5-yl)carbamoyl)-1H-indol-5-yl)methyl)phosphonic acid]
